Assay results as given in publication PMC7383509 (Clinical Pharmacology in Drug Development, 2019).
Where “and” joins values, the source holds several entries; their conditions need not be identical. Identical values can stand only once. Like-named read-outs stand apart in the source and are kept apart here.

Legend:
[1] = format: in vivo, human; conditions: for Tmax / AUC / clearance / Cmax / Vd / half-life: human, plasma, iv; for AUC: AUC0‐t; for AUC / clearance / Cmax / Vd / half-life: ESRD subjects, single 0.5 mg IV; for AUC / Cmax: dose-normalized to 1 mg; for clearance: CL; for Vd: Vz; for half-life: t½
[2] = remainder eliminated in the feces; cited from earlier work
[3] = format: in vivo, human; conditions: for AUC / clearance / Cmax / Vd / half-life: 0.5 mg, single 0.5 mg IV; for AUC: AUC0‐t; for AUC / Cmax: dose-normalized to 1 mg; for clearance: CL; for Vd: Vz; for half-life: t½
[4] = Hepatic impairment study: safety and tolerability; format: in vivo, human
[5] = Renal impairment study: safety and tolerability; format: in vivo, human
[6] = human plasma; cited from earlier work
[7] = ESRD subjects/healthy subjects, ANCOVA
[8] = ESRD subjects/healthy subjects, ANCOVA, dose-adjusted
[9] = human, plasma, iv, arithmetic mean ± SD, mild hepatic impairment
[10] = human, plasma, iv, arithmetic mean ± SD, moderate hepatic impairment
[11] = human, plasma, iv, arithmetic mean ± SD, severe hepatic impairment
[12] = human, plasma, iv, geometric mean (%CVb), severe hepatic impairment
[13] = human, plasma, iv, geometric mean (%CVb), mild hepatic impairment
[14] = human, plasma, iv, geometric mean (%CVb), moderate hepatic impairment
[15] = mild hepatic impairment, 0.5 mg IV, 10 subjects
[16] = moderate hepatic impairment, 0.5 mg IV, 10 subjects
[17] = severe hepatic impairment, 0.5 mg IV, 6 subjects

COc1ccsc1CNCC[C@@]1(c2ccccn2)CCOC2(CCCC2)C1 [Oliceridine]
CL, ratio of geometric means [1, 7]: 81.2
t½, ratio of geometric means [1, 7]: 128
AUC0‐t, ratio of geometric means [1, 8]: 108
AUC0‐∞, ratio of geometric means [1, 8]: 123
Cmax, ratio of geometric means [1, 8]: 113
Tmax ([1]; 0.5 mg): 0.25 h
AUC ([1]; 0.5 mg, arithmetic mean (SD)): 19.7 ng·h/mL
AUC ([1]; 0.5 mg, geometric mean (%CVb)): 19.1 ng·h/mL
clearance ([1]; 0.5 mg, arithmetic mean (SD)): 847 mL/min
clearance ([1]; 0.5 mg, geometric mean (%CVb)): 820 mL/min
Cmax ([1]; 0.5 mg, arithmetic mean (SD)): 9.96 ng/mL
Cmax ([1]; 0.5 mg, geometric mean (%CVb)): 9.87 ng/mL
Vd ([1]; 0.5 mg, arithmetic mean (SD)): 219 L
Vd ([1]; 0.5 mg, geometric mean (%CVb)): 212 L
half-life ([1]; 0.5 mg, arithmetic mean (SD)): 3.11 h
half-life ([1]; 0.5 mg, geometric mean (%CVb)): 2.99 h
Tmax ([1]; 1 mg): 0.25 h
Share of the metabolites eliminated in the urine [2]: Approximately 70%
CL, GM ratio Mild:Healthy (90%CI) ([3]; ANOVA): 1.05 (0.77, 1.43)
CL, GM ratio Moderate:Healthy (90%CI) ([3]; ANOVA): 0.80 (0.59, 1.09)
CL, GM ratio Severe:Healthy (90%CI) ([3]; ANOVA): 0.99 (0.71, 1.38)
t½, GM ratio Mild:Healthy (90%CI) ([3]; ANOVA): 1.26 (0.96, 1.66)
t½, GM ratio Moderate:Healthy (90%CI) ([3]; ANOVA): 2.09 (1.59, 2.75)
AUC0‐t, GM ratio Mild:Healthy (90%CI) ([3]; dose-normalized, ANOVA): 0.93 (0.68, 1.28)
AUC0‐∞, GM ratio Mild:Healthy (90%CI) ([3]; dose-normalized, ANOVA): 0.95 (0.70, 1.29)
AUC0‐∞, GM ratio Moderate:Healthy (90%CI) ([3]; dose-normalized, ANOVA): 1.25 (0.92, 1.70)
AUC0‐∞, GM ratio Severe:Healthy (90%CI) ([3]; dose-normalized, ANOVA): 1.01 (0.72, 1.41)
Cmax, GM ratio Mild:Healthy (90%CI) ([3]; dose-normalized, ANOVA): 1.19 (0.54, 2.60)
Cmax, GM ratio Moderate:Healthy (90%CI) ([3]; dose-normalized, ANOVA): 1.20 (0.55, 2.62)
Cmax, GM ratio Severe:Healthy (90%CI) ([3]; dose-normalized, ANOVA): 0.24 (0.10, 0.56)
AUC [3, 9]: 23.3 ± 7.9 ng·h/mL
AUC [3, 10]: 29.9 ± 11.3 ng·h/mL
AUC [3, 11]: 23.4 ± 10.3 ng·h/mL
AUC [3, 12]: 21.8 ng·h/mL
clearance [3, 9]: 807 mL/min
clearance [3, 10]: 595 mL/min
clearance [3, 11]: 738 mL/min
clearance [3, 13]: 742 mL/min
clearance [3, 14]: 565 mL/min
clearance [3, 12]: 697 mL/min
Cmax [3, 9]: 62.3 ± 48.8 ng/mL
Cmax [3, 10]: 46.6 ± 19.4 ng/mL
Cmax [3, 11]: 11.9 ± 10.6 ng/mL
Cmax [3, 13]: 41.4 ng/mL
Cmax [3, 14]: 41.9 ng/mL
Cmax [3, 12]: 8.4 ng/mL
Vd [3, 9]: 181 ± 81.2 L
Vd [3, 10]: 215 ± 39.1 L
Vd [3, 11]: 370 ± 130 L
Vd [3, 13]: 167 L
Vd [3, 14]: 212 L
Vd [3, 12]: 348 L
half-life [3, 9]: 2.7 ± 0.53 h
half-life [3, 10]: 4.7 ± 2.1 h
half-life [3, 11]: 6.3 ± 2.6 h
half-life [3, 13]: 2.6 h
half-life [3, 14]: 4.3 h
half-life [3, 12]: 5.8 h
AUC(0-t) ([3]; human, plasma, iv, 1 mg): 24.1 ± 7.5 ng·h/mL
At least 1 TEAE, no. of events ([4]; healthy, 1 mg IV, 8 subjects): 0 no. of events
Somnolence, no. of events ([4]; healthy, 1 mg IV, 8 subjects): 0 no. of events
Somnolence, subjects ([4]; healthy, 1 mg IV, 8 subjects): 0 (0%) n (%)
Subjects with TEAEs by maximum severity: Mild ([4]; healthy, 1 mg IV, 8 subjects): 0 (0%) n (%)
Subjects with TEAEs by maximum severity: Moderate ([4]; healthy, 1 mg IV, 8 subjects): 0
Subjects with TEAEs by maximum severity: Severe ([4]; healthy, 1 mg IV, 8 subjects): 0
Subjects with at least 1 TEAE ([4]; healthy, 1 mg IV, 8 subjects): 0 (0%) n (%)
TEAEs by maximum severity: Mild, no. of events ([4]; healthy, 1 mg IV, 8 subjects): 0 no. of events
Duration of somnolence TEAEs ([4]; mild hepatic impairment group, mild intensity, resolved completely): approximately 1 hour
At least 1 TEAE, no. of events [4, 15]: 2 no. of events
Somnolence, no. of events [4, 15]: 2 no. of events
Somnolence, subjects [4, 15]: 2 n (%) and 2 (20%) n (%)
Subjects with TEAEs by maximum severity: Mild [4, 15]: 2 (20%) n (%)
Subjects with TEAEs by maximum severity: Moderate [4, 15]: 0
Subjects with TEAEs by maximum severity: Severe [4, 15]: 0
Subjects with at least 1 TEAE [4, 15]: 2 (20%) n (%)
TEAEs by maximum severity: Mild, no. of events [4, 15]: 2 no. of events
At least 1 TEAE, no. of events [4, 16]: 0 no. of events
Somnolence, no. of events [4, 16]: 0 no. of events
Somnolence, subjects [4, 16]: 0 (0%) n (%)
Subjects with TEAEs by maximum severity: Mild [4, 16]: 0 (0%) n (%)
Subjects with TEAEs by maximum severity: Moderate [4, 16]: 0
Subjects with TEAEs by maximum severity: Severe [4, 16]: 0
Subjects with at least 1 TEAE [4, 16]: 0 (0%) n (%)
TEAEs by maximum severity: Mild, no. of events [4, 16]: 0 no. of events
At least 1 TEAE, no. of events [4, 17]: 0 no. of events
Somnolence, no. of events [4, 17]: 0 no. of events
Somnolence, subjects [4, 17]: 0 (0%) n (%)
Subjects with TEAEs by maximum severity: Mild [4, 17]: 0 (0%) n (%)
Subjects with TEAEs by maximum severity: Moderate [4, 17]: 0
Subjects with TEAEs by maximum severity: Severe [4, 17]: 0
Subjects with at least 1 TEAE [4, 17]: 0 (0%) n (%)
TEAEs by maximum severity: Mild, no. of events [4, 17]: 0 no. of events
At least 1 TEAE, no. of events ([5]; ESRD, 0.5 mg IV, 9 subjects): 2 no. of events
Dizziness, subjects ([5]; ESRD, 0.5 mg IV, 9 subjects): 0
Euphoria, subjects ([5]; ESRD, 0.5 mg IV, 9 subjects): 0
Fatigue, no. of events ([5]; ESRD, 0.5 mg IV, 9 subjects): 1 no. of events
Fatigue, subjects ([5]; ESRD, 0.5 mg IV, 9 subjects): 1 (11%) n (%)
Feeling of relaxation, subjects ([5]; ESRD, 0.5 mg IV, 9 subjects): 0
Headache, subjects ([5]; ESRD, 0.5 mg IV, 9 subjects): 0
Nausea, no. of events ([5]; ESRD, 0.5 mg IV, 9 subjects): 1 no. of events
Nausea, subjects ([5]; ESRD, 0.5 mg IV, 9 subjects): 1 (11%) n (%)
Pain in extremity, subjects ([5]; ESRD, 0.5 mg IV, 9 subjects): 0
Subjects with TEAEs by maximum severity: Mild ([5]; ESRD, 0.5 mg IV, 9 subjects): 2 (22%) n (%)
Subjects with TEAEs by maximum severity: Moderate ([5]; ESRD, 0.5 mg IV, 9 subjects): 0
Subjects with TEAEs by maximum severity: Severe ([5]; ESRD, 0.5 mg IV, 9 subjects): 0
Subjects with at least 1 TEAE ([5]; ESRD, 0.5 mg IV, 9 subjects): 2 (22%) n (%)
TEAEs by maximum severity: Mild, no. of events ([5]; ESRD, 0.5 mg IV, 9 subjects): 2 no. of events
Total number of mild TEAEs, overall ([5]; all 17 subjects of the renal study): 11
Subjects who experienced TEAEs, overall ([5]; all subjects of the renal study (6 of 17)): 35.3%
Dizziness, no. of events ([5]; healthy, 1 mg IV, 8 subjects): 1 no. of events
Dizziness, subjects ([5]; healthy, 1 mg IV, 8 subjects): 1 (12.5%) n (%)
Euphoria, no. of events ([5]; healthy, 1 mg IV, 8 subjects): 2 no. of events
Euphoria, subjects ([5]; healthy, 1 mg IV, 8 subjects): 2 (25%) n (%)
Fatigue, no. of events ([5]; healthy, 1 mg IV, 8 subjects): 2 no. of events
Fatigue, subjects ([5]; healthy, 1 mg IV, 8 subjects): 2 (25%) n (%)
Feeling of relaxation, no. of events ([5]; healthy, 1 mg IV, 8 subjects): 1 no. of events
Feeling of relaxation, subjects ([5]; healthy, 1 mg IV, 8 subjects): 1 (12.5%) n (%)
Headache, no. of events ([5]; healthy, 1 mg IV, 8 subjects): 1 no. of events
Headache, subjects ([5]; healthy, 1 mg IV, 8 subjects): 1 (12.5%) n (%)
Nausea, no. of events ([5]; healthy, 1 mg IV, 8 subjects): 3 no. of events
Nausea, subjects ([5]; healthy, 1 mg IV, 8 subjects): 2 (25%) n (%)
Pain in extremity, no. of events ([5]; healthy, 1 mg IV, 8 subjects): 1 no. of events
Pain in extremity, subjects ([5]; healthy, 1 mg IV, 8 subjects): 1 (12.5%) n (%)
Subjects with TEAEs by maximum severity: Mild ([5]; healthy, 1 mg IV, 8 subjects): 4 (50%) n (%)
Subjects with TEAEs by maximum severity: Moderate ([5]; healthy, 1 mg IV, 8 subjects): 0
Subjects with TEAEs by maximum severity: Severe ([5]; healthy, 1 mg IV, 8 subjects): 0
TEAEs by maximum severity: Mild, no. of events ([5]; healthy, 1 mg IV, 8 subjects): 9 no. of events
Free fraction [6]: 23%
